Data on one compound can be found in ChEMBL document CHEMBL1148051, “Antibiotic activity and absolute configuation of 8S-heptadeca-2(Z),9(Z)-diene-4,6-diyne-1,8-diol from Bupleurum salicifolium” (1994).

Converted amounts (≈) assume the structure as drawn. The source made the active and inactive calls. The calls are words filed in the database; no cut-off is given here.

Assay [1] deals with Staphylococcus aureus. The assay is described as follows: Antibacterial activity against Staphylococcus aureus ATCC 6538 by rotary shaker method. Type of assay: functional.
Assay [2] deals with Candida albicans. The assay is described as follows: Antifungal activity against Candida albicans UBC1. Type of assay: functional, organism-based.
Assay [3] deals with Pseudomonas aeruginosa. The assay is described as follows: Antibacterial activity against Pseudomonas aeruginosa AK 958. Type of assay: functional, organism-based.
Assay [4] has as its system Escherichia coli. The assay is described as follows: Antibacterial activity against Escherichia coli CECT 99. Format: functional, organism-based.
Assay [5] has as its system Salmonella. The assay is described as follows: Antibacterial activity against Salmonella sp. CECT 456. Type of assay: functional, organism-based.
Assay [6] deals with Bacillus subtilis. The assay is described as follows: Antibacterial activity against Bacillus subtilis CECT 39 by rotary shaker method. Format: functional.

As for `CCCCCCC/C=C\[C@H](O)C#CC#C/C=C\CO`, the MIC in assay [1] came out at 10 µg/mL (≈ 38.4 µM); in assay [6], 10.5 µg/mL (≈ 40.3 µM). Besides, the result in assay [2], in assay [3], in assay [4] and in assay [5] was inactive.
